Reference: paper PMC4423475, “Structure-based discovery of the first non-covalent inhibitors of Leishmania major tryparedoxin peroxidase by high throughput docking” (Scientific Reports, 2015)

What was measured:
[1] = biological target: Tryparedoxin peroxidase I from Leishmania major (LmTXNPx) (Leishmania major); test: crystal structure; hanging drop vapor diffusion at 293 K; 12 mg/mL protein in 20 mM Tris-HCl pH 7.5 with 50 mM DTT (reduced); pentamer in the asymmetric unit, decamer from two pentamers of adjacent asymmetric units
LmTXNPx [2] = biological target: T1, LmTXNPx (Leishmania major, UniProt Q4QF76); test: HRP-H2O2 competition assay (LmTXNPx inhibition assay); format: biochemical
Text: To determine the ability of the selected compounds to inhibit the catalytic activity of LmTXNPx, we used the horseradish peroxidase (HRP)-H2O2 competition assay developed by Augusto and co-workers[16]. HRP is well known to react with H2O2 in a two-electron oxidation process that leads to the formation of HRP compound I (HRP-I), a stable HRP oxidized intermediate that can be followed at 398 nm. Reduced LmTXNPx competes with HRP for the H2O2 substrate, leading to a decrease in HRP-I yield that is proportional to LmTXNPx concentration. The addition of LmTXNPx inhibitors leads to a decrease in free LmTXNPx concentration and consequent increase in the HRP-I yield.
Competition kinetics have been performed for determining the activity of the compounds selected by HTD. The ability of the compounds to inhibit the H2O2 reduction by LmTXNPx has been determined by competition approach utilizing the well-known reactivity of H2O2 with horseradish peroxidase (HRP)[16][20][26]. HRP is a heme-containing peroxidase, which uses hydrogen peroxide (by reducing it to water) to oxidize different organic substrates to free radicals. The reaction takes place in three steps: • PFe(III) + H2O2 → P^·+Fe(IV) = O + H2O • P^·+Fe(IV) = O + X → X^• + PFe(IV) = O • PFe(IV) = O + X + 2H^+ → PFe(III) + X^· + H2O
Where PFe(III) is HRP (the native protein), P^·+Fe(IV) = O is the HRP compound I (HRP-I), PFe(IV) = O is the HRP compound II (HRP-II) and X is a generic substrate. The formation of HPR-I results in a change in light absorption in the visible range (Δε403 nm = 5.4 × 10^4 M^−1cm^−1). For kinetic studies the HRP oxidation is monitored at 398 nm (Δε398 nm = 4.2 × 10^4 M^−1cm^−1) instead of 403 nm (wavelength corresponding to the maximum of HRP absorbance) in order to avoid interferences arising from HRP-I reduction to HRP-II. This method is usually used to determine the second order rate constant of 2Cys- Peroxiredoxin reaction with hydrogen peroxide and peroxinitrite.
Thus, H2O2-mediated HRP oxidation is a two-electron oxidation process, leading to the formation of HRP-I, followed at 398 nm. The addition of increasing concentrations of pre-reduced LmTXNPx led to a lower yield in HRP-I since two reactions take place in solution: [drawing 1] [drawing 2]
Where I indicates the inhibitor and LmTXNPx-I indicates the complex between LmTXNPx and the inhibitor. The addition of active LmTXNPx inhibitors led to a decrease in the free LmTXNPx and the consequent recover in the HRP-I yield and therefore to a partial or total recover of the ΔA.
The HRP-based indirect kinetic assays to test the inhibitors was performed in the following way: HRP 2 μM was exposed to H2O2 0.25 μM in sodium phosphate buffer pH 7.4 and 25°C, either in the absence or in the presence of the indicated concentrations of reduced LmTXNPx and in the absence or in the presence of inhibitors. The relative changes in absorbance at 398 nm (ΔA/ΔA0), reflecting HRP-I formation, were determined.
(§1) The compounds ability to inhibit TXNPx has been evaluated by simply measuring the following ratio: ΔA/ΔA0 where ΔA0 is the difference in absorbance between HRP and compound I (ΔA0 = 0.04) and ΔA is the difference in absorbance between HRP and compound I in the presence of LmTXNPx and 100 μM inhibitors. All the compounds have been previously tested for their ability to inhibit HRP at a concentration of 100 μM.

[3] = biological target: T2, horseradish peroxidase (HRP) (Armoracia rusticana, UniProt P00433); test: HRP inhibition control (compounds tested for their ability to inhibit HRP); format: biochemical; details: compound at 100 μM
T2 sequence (P00433 31-353): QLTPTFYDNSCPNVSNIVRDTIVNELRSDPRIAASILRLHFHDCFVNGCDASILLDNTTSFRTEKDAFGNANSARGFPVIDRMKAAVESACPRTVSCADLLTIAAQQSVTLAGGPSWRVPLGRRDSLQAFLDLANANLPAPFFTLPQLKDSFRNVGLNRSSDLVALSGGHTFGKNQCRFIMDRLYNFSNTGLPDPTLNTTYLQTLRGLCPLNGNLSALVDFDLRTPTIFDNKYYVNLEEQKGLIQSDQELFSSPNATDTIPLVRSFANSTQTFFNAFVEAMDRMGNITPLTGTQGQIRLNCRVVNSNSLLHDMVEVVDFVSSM
Protocol: as §1

LmTXNPx [4] = biological target: T1, LmTXNPx; test: Surface plasmon resonance, immobilized LmTXNPx; format: binding; details: SPR, 1:1 steady-state affinity model
Protocol: SPR experiments were carried out using a SensiQ Pioneer system (SensiQ, ICxNomadics Inc.). The interaction of the immobilized protein with the analytes was detected by mass concentration-dependent changes of the refractive index on the sensor chip surface. The changes in the observed SPR signal are expressed as Resonance Units (RU). Typically, a response change of 1000 RU corresponds to a change in the surface concentration on the sensor chip of about 1 ng of protein per mm^2.
The sensor chips (COOH5 SensiQ) were chemically activated by injection of 250 μl of a 1:1 mixture of N-hydroxysuccinimide (50 mM) and N-ethyl-N-(3-dimethylaminopropyl)carbodiimide (200 mM) at a flow rate of 25 μl/min. Recombinant LmTXNPx was immobilized on the activated sensor chip via amine coupling. The reaction was carried out at a rate of […] in 20 mM sodium acetate at pH 4.5; the remaining ester groups were blocked by injecting 100 μL of 1 M ethanolamine hydrochloride. Recombinant LmTXNPx was captured to approximately 2000 RU. The analytes were dissolved at a concentration of 10 mM or 20 mM in dimethylsulfoxide (DMSO), and diluted 1:100 in HEPES-buffered saline (HBS: 10 mM HEPES, pH 7.4; 150 mM NaCl; 0.005% surfactant P20).
FastStep injections of samples (100 or 200 μM analytes in HBS + 1% DMSO), and reference buffer (HBS + 1% DMSO) were performed: either the inhibitor and reference buffer were automatically diluted in HBS and injected by 7 serial doubling steps (step contact time = 15 s, nominal flow rate = 200 μl/min). The following analytes were injected: 0–17 s: analyte concentration = 3.12 μM; 17–33 s: 6.25 μM; 33–48 s: 12.5 μM; 48–62 s: 25 μM; 63–78 s: 50 μM; 78–93 s: 100 μM; 94–100 s: 200 μM; for each injection, a maximal RU value was obtained. In control experiments, the sensor chip was treated as described above in the absence of immobilized protein.
Each sensorgram is the average of three different experiments. Sensorgrams were subjected to global analysis using QDat software 2.2.0.23, and for each analyte concentration a % Response was calculated, allowing a local Rmax fit (according to the molecular weight of each compound) and displaying as a response relative to the Rmax. % Response vs. analyte concentration was plotted and a KD value was calculated for each analyte by fitting a simple 1:1 steady-state affinity model to the data.

[5] = residual activity of HRP, HRP 2 μM, H2O2 0.25 μM, 2.5 μM LmTXNPx, 100 μM inhibitors, sodium phosphate buffer pH 7.4, 25°C

Row | Compound | stoichiometry N [1] | (ΔA/ΔA0) × 100 (LmTXNPx [2]; first series (HTD hits), HRP 2 µM, H2O2 0.25 µM, 2.5 µM LmTXNPx, 100 µM inhibitors, pH 7.4, 25 °C) | (ΔA/ΔA0) × 100 (LmTXNPx [2]; [5]) | HRP inhib. [3] | HRP inhibition ([3]; first series (HTD hits)) | Kd (LmTXNPx [4])
1 | Tryparedoxin peroxidase I from Leishmania major (LmTXNPx) (enzyme) | 10 |  |  |  |  | 
2 | COc1cc2cc(CN(Cc3ccc(F)cc3)Cc3nnnn3Cc3ccccc3)c(=O)[nH]c2cc1OC [Compound 1, 3-((((1-Benzyl-1H-tetrazol-5-yl)methyl)(4-fluorobenzyl)amino)methyl)-6,7-dimethoxyquinolin-2(1H)-one] |  | 47 ± 6% | 52 ± 10% | No | No | 290 ± 13 µM
3 | O=c1[nH]c2ccccc2cc1CN(Cc1ccc(F)cc1)Cc1nnnn1Cc1ccccc1 [Compound 8, 3-((((1-Benzyl-1H-tetrazol-5-yl)methyl)(4-fluorobenzyl)amino)methyl)quinolin-2(1H)-one] |  |  | 45 ± 15% | No |  | 104 ± 4 µM
4 | COc1ccc2[nH]c(=O)c(CN(Cc3ccc(F)cc3)Cc3nnnn3Cc3ccccc3)cc2c1 [Compound 7, 3-((((1-Benzyl-1H-tetrazol-5-yl)methyl)(4-fluorobenzyl)amino)methyl)-6-methoxyquinolin-2(1H)-one] |  |  | 60 ± 7% | No |  | 47 ± 1 µM
